According to ChEMBL document CHEMBL1135887, “Substituted pentacyclic carbazolones as novel muscarinic allosteric agents: synthesis and structure-affinity and cooperativity relationships” (J Med Chem, 2002):

Columns and labels:
[1] = target: T1, Muscarinic acetylcholine receptor M1 (Homo sapiens) (UniProt P11229); assay: Logarithm of affinity (log 1/M) at the (N-methyl Scopolamine) NMS-liganded muscarinic acetylcholine receptor M1 by using semiquantitative equilibrium and off-rate assay
T1 sequence (whole entry): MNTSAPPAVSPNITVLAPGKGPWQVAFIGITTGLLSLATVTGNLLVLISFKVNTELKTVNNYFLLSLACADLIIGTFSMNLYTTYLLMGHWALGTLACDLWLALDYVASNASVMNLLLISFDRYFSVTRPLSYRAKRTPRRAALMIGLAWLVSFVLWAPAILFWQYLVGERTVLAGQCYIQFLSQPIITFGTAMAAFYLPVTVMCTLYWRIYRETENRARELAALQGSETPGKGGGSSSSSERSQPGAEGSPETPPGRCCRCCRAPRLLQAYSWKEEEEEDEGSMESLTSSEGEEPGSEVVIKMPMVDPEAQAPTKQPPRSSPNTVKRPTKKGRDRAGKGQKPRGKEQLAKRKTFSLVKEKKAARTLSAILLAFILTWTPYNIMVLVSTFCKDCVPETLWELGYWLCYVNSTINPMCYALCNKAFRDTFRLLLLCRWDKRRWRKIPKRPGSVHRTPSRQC

[2] = target: T2, Muscarinic acetylcholine receptor M4 (Homo sapiens) (UniProt P08173); assay: Subtype selectivity and cooperativity with N-methyl Scopolamine (NMS) at Muscarinic acetylcholine receptor M4; Activity range is 1.2-3
T2 sequence (whole entry): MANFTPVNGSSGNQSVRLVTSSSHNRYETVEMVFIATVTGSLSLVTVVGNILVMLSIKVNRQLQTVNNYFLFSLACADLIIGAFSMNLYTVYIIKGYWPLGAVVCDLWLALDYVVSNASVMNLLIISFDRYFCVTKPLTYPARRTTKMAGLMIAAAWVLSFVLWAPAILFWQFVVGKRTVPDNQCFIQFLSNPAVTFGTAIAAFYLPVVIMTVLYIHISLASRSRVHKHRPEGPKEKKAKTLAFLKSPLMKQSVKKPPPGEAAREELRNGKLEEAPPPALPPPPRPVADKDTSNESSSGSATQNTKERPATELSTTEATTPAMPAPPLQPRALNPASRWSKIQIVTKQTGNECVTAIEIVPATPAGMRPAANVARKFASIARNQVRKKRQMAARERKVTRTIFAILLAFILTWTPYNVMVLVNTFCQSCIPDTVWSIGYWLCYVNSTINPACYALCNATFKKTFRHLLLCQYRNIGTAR

[3] = target: Muscarinic acetylcholine receptor M3 (Homo sapiens) (UniProt P20309); assay: Logarithm of affinity (log 1/M) at the (N-methyl Scopolamine) NMS-liganded muscarinic acetylcholine receptor M3 by using semiquantitative equilibrium and off-rate assay
Muscarinic acetylcholine receptor M3 (Homo sapiens), sequence (P20309 whole entry, looked up): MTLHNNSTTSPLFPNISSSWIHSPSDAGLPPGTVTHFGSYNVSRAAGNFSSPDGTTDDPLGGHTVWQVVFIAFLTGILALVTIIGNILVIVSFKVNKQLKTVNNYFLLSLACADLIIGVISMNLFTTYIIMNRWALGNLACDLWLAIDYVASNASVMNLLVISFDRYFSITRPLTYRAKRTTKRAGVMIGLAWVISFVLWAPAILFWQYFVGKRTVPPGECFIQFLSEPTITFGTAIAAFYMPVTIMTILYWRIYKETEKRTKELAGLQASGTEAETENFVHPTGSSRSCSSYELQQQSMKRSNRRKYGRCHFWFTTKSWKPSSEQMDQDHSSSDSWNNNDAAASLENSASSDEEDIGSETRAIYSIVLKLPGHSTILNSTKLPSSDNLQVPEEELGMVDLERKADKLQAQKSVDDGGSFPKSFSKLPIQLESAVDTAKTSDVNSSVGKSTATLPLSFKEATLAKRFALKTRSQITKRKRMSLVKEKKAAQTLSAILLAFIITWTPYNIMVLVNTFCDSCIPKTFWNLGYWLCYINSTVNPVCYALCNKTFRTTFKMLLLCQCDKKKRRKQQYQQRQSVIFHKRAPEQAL

[4] = target: Muscarinic acetylcholine receptor M3 (Homo sapiens) (UniProt P20309); assay: Logarithm of affinity (log 1/M) at the muscarinic acetylcholine receptor M3 by using semiquantitative equilibrium and off-rate assay
[5] = target: T2, Muscarinic acetylcholine receptor M4 (Homo sapiens); assay: Logarithm of affinity (log 1/M) at the muscarinic acetylcholine receptor M4 by using semiquantitative equilibrium and off-rate assay
[6] = target: T1, Muscarinic acetylcholine receptor M1 (Homo sapiens); assay: Subtype selectivity and the cooperativity with N-methyl Scopolamine (NMS) at Muscarinic acetylcholine receptor M1; Activity range is 0.2-0.8
[7] = target: Muscarinic acetylcholine receptor M3 (Homo sapiens) (UniProt P20309); assay: Subtype selectivity and the cooperativity with N-methyl Scopolamine (NMS) at Muscarinic acetylcholine receptor M3; […]
[8] = target: T3, Muscarinic acetylcholine receptor M2 (Homo sapiens) (UniProt P08172); assay: Logarithm of affinity (log 1/M) at the muscarinic acetylcholine receptor M2 by using semiquantitative equilibrium and off-rate assay
T3 sequence (whole entry): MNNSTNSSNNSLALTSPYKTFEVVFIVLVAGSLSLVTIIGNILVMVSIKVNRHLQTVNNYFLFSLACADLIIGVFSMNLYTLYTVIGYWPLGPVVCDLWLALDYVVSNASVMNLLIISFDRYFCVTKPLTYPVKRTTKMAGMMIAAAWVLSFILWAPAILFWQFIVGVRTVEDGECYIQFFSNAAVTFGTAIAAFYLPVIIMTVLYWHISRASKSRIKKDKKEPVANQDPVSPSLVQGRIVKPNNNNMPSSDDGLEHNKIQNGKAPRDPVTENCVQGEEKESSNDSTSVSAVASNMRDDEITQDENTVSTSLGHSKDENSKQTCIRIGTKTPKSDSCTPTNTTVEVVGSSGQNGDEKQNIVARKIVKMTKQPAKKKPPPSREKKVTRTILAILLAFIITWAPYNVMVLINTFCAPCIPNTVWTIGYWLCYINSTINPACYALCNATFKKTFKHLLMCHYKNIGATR

[9] = target: T3, Muscarinic acetylcholine receptor M2 (Homo sapiens); assay: Subtype selectivity and the cooperativity with N-methyl Scopolamine (NMS) at Muscarinic acetylcholine receptor M2; Activity range is 1.2-3
[10] = target: T1, Muscarinic acetylcholine receptor M1 (Homo sapiens); assay: Logarithm of affinity (log 1/M) at the free muscarinic acetylcholine receptor M1 by using semiquantitative equilibrium and off-rate assay
[11] = target: T2, Muscarinic acetylcholine receptor M4 (Homo sapiens); assay: Logarithm of affinity (log 1/M) at the (N-methyl Scopolamine) NMS-liganded muscarinic acetylcholine receptor M4 by using semiquantitative equilibrium and off-rate assay
[12] = target: T3, Muscarinic acetylcholine receptor M2 (Homo sapiens); assay: Logarithm of affinity (log 1/M) at the (N-methyl Scopolamine) NMS-liganded muscarinic acetylcholine receptor M2 by using semiquantitative equilibrium and off-rate assay
[13] = target: Muscarinic acetylcholine receptor M3 (Homo sapiens) (UniProt P20309); assay: Subtype selectivity and the cooperativity with N-methyl Scopolamine (NMS) at muscarinic acetylcholine receptor M3; Activity range is 0.2-0.8
[14] = target: T2, Muscarinic acetylcholine receptor M4 (Homo sapiens); assay: Subtype selectivity and the cooperativity with N-methyl Scopolamine (NMS) at Muscarinic acetylcholine receptor M4; Activity range is 0.81-1.19
[15] = target: T2, Muscarinic acetylcholine receptor M4 (Homo sapiens); assay: Subtype selectivity and the cooperativity with N-methyl Scopolamine (NMS) at Muscarinic acetylcholine receptor M4; Activity range is 0.2-0.8
[16] = target: T3, Muscarinic acetylcholine receptor M2 (Homo sapiens); assay: Subtype selectivity and the cooperativity with N-methyl Scopolamine (NMS) at Muscarinic acetylcholine receptor M2
[17] = target: T2, Muscarinic acetylcholine receptor M4 (Homo sapiens); assay: Subtype selectivity and the cooperativity with N-methyl Scopolamine (NMS) at Muscarinic acetylcholine receptor M4

Compound | Log 1/M [1] | Cooperativity [2] | Log 1/M [3] | Log 1/M [4] | Log 1/M [5] | Cooperativity [6] | Cooperativity [7] | Log 1/M [8] | Cooperativity [9] | Log 1/M [10] | Log 1/M [11] | Log 1/M [12] | Cooperativity [13] | Cooperativity [14] | Cooperativity [15] | Cooperativity [16] | Cooperativity [17]
O=C1CCc2cc3c(c4c5ccc(O)cc5n1c24)CCNC3 | 5.62 | 3 | 5.29 | 5.23 | 5.38 | 0.8 | 1.19 | 5.24 | 3 | 6.01 | 5.36 | 5.34 | – | – | – | – | –
COc1cccc2c1c1c3c(cc4c1n2C(=O)CC4(C)C)CNCC3 | 5.54 | – | 4.83 | 4.92 | 5.94 | 0.8 | – | 6.21 | 3 | 6.65 | 5.79 | 6.16 | 0.8 | 1.19 | – | – | –
O=C1CCc2cc3c(c4c5ccccc5n1c24)CNCC3 | 5.7 | 3 | 4.69 | 5.78 | 5.31 | 0.8 | – | 5.51 | 3 | 5.85 | 5.48 | 5.57 | 0.8 | – | – | – | –
COc1ccc2c(c1)c1c3c(cc4c1n2C(=O)CC4)CNCC3 | 5.23 | – | 4.54 | 5.04 | 5.6 | 0.8 | – | 5.96 | 3 | 5.78 | 5.57 | 6.15 | 0.8 | 1.19 | – | – | –
COC(=O)c1cccc2c1c1c3c(cc4c1n2C(=O)CC4)CNCC3 | 5.34 | – | 4.78 | 4.98 | 5.6 | 0.8 | – | 5.5 | 3 | 5.47 | 5.58 | 5.82 | 0.8 | – | 0.8 | – | –
O=C(O)c1ccc2c(c1)c1c3c(cc4c1n2C(=O)CC4)CNCC3 | 4.57 | – | 3.94 | 4.51 | 5.39 | 0.8 | – | 5.31 | – | 5.43 | 5.32 | 5.6 | 0.8 | – | – | > 3 | > 3
COc1cccc2c3c4c(cc5c3n(c12)C(=O)CC5)CNCC4 | 5.07 | 3 | 4.75 | 5.06 | 5.97 | 0.8 | – | 5.19 | 3 | 5.4 | 5.11 | 5.55 | 0.8 | – | – | – | –
COC(=O)c1c2c(c3c4cc(OC)c(OC)cc4n4c3c1CCC4=O)CCNC2 | 6.05 | 3 | 4.9 | 5.11 | 5.86 | 0.8 | – | 6.22 | 3 | 5.97 | 5.96 | 6.37 | 0.8 | – | – | – | –
Cc1ccc2c(c1)c1c3c(cc4c1n2C(=O)CC4)CNCC3 | 5.69 | 3 | 5.08 | 5.71 | 6.26 | 0.8 | – | 6.09 | 3 | 5.9 | 5.97 | 6.47 | 0.8 | – | – | – | –
O=C1CCc2cc3c(c4c5cc(CN6CCOCC6)ccc5n1c24)CCNC3 | 5.35 | – | 3.93 | 4.56 | 6.12 | 0.8 | – | 5.53 | 3 | 5.47 | 5.35 | 5.79 | 0.8 | 1.19 | – | – | –
